According to ChEMBL document CHEMBL6087397, “H2S-releasing oridonin derivatives with improved antitumor activity by inhibiting the PI3K/AKT pathway” (Bioorg Med Chem, 2024):
Activity calls are given as the source filed them. No cut-off for these calls is given here.

Key:
MIA PaCa-2 [1] = assay: Induction of apoptosis in human MIA PaCa-2 cells assessed as upregulation of cleaved PARP expression at 1.25 to 5.0 uM incubated for 48 hrs by Western blotting analysis; format: functional, cell-based; details: dose 1.25-5 µM
HepG2 = assay: Antiproliferative activity against human HepG2 cells assessed as inhibition of cell proliferation incubated for 48 hrs by CCK-8 assay; format: functional, cell-based; details: HepG2, 48 h
MCF7 [2] = assay: Induction of mitochondrial apoptosis pathway in human MCF7 cells assessed as downregulation of pro-caspase-3 expression at 1.25 to 5.0 uM incubated for 48 hrs by Western blotting analysis; format: functional, cell-based; details: dose 1.25-5 µM
MCF7 [3] = assay: Induction of mitochondrial dysfunction in human MCF7 cells assessed as decrease in MMP level at 2.5 to 5.0 uM by measuring green fluorescence incubated for 48 hrs by JC-1 staining based flow cytometric analysis; format: functional, cell-based; details: dose 2.5-5 µM
MIA PaCa-2 [4] = assay: Induction of apoptosis in human MIA PaCa-2 cells assessed as increase in nuclear fragmentation at 2.5 uM incubated for 48 hrs by Hoechst 33342 staining based fluorescence microscopic analysis; format: functional, cell-based
4T1 = assay: Antitumor activity against mouse 4T1 cells xenografted in female BALB/c mouse assessed as tumor inhibition rate at 10 mg/kg, ip administered every 2 days relative to control; format: functional; details: 4T1, 48 h, read-out: TGI
MIA PaCa-2 [5] = assay: Inhibition of cell invasion in human MIA PaCa-2 cells assessed as decrease in number of invading cells at 0.5 to 1.0 uM incubated for 48 hrs by crystal violet staining based transwell microscopic analysis relative to control; format: functional; details: dose 0.5-1 µM
MCF7 [6] = assay: Induction of apoptosis in human MCF7 cells assessed as increase in fluorescence intensity at 2.5 uM incubated for 48 hrs by Hoechst 33342 staining based fluorescence microscopic analysis; format: functional, cell-based
MIA PaCa-2 [7] = assay: Induction of cell cycle arrest in human MIA PaCa-2 cells assessed as increase in accumulation of cells at S phase at 2.5 uM incubated for 48 hrs by PI staining based flow cytometric analysis (reference value: 9.38%); format: functional
MCF7 [8] = assay: Induction of mitochondrial apoptosis pathway in human MCF7 cells assessed as downregulation of pro-caspase-9 expression at 1.25 to 5.0 uM incubated for 48 hrs by Western blotting analysis; format: functional, cell-based; details: dose 1.25-5 µM
MCF7 [9] = assay: Induction of apoptosis in human MCF7 cells assessed as increase in cleaved caspase-9 level at 1.25 to 5.0 uM incubated for 48 hrs by Western blotting analysis; format: functional, cell-based; details: dose 1.25-5 µM
MCF7 [10] = assay: Inhibition of colony formation in human MCF7 cells assessed as reduction in number of colonies at 1.0 to 2.0 uM incubated for […] by crystal violet staining based microscopic analysis; format: functional, cell-based; details: dose 1-2 µM
MCF7 [11] = assay: Inhibition of cell invasion in human MCF7 cells assessed as decrease in number of invading cells at 0.5 to 1.0 uM incubated for 48 hrs by crystal violet staining based transwell microscopic analysis; format: functional; details: dose 0.5-1 µM

C=C1C(=O)[C@]23[C@H](OC(=O)c4ccc(N=C=S)cc4)[C@H]1CC[C@H]2[C@@]12CO[C@]3(O)[C@@H](O)[C@@H]1C(C)(C)CC[C@@H]2O
Activity (MIA PaCa-2 [1]): Active
IC50 (HepG2): 7.48 µM
Activity (MCF7 [2]): Active
Activity (MCF7 [3]): Active
Activity (MIA PaCa-2 [4]): Active
inhibition in vivo at 10 mg/kg (4T1): 34.3%
inhibition (INH) (MIA PaCa-2 [5]): ~70%
Activity (MCF7 [6]): Active
Activity (MIA PaCa-2 [7]): 36%
Activity (MCF7 [8]): Active
Activity (MCF7 [9]): Active
inhibition (MCF7 [10]): Active
inhibition (MCF7 [11]): Active
